Measured values: US8163756B2 (priority 2004, dated 2012)

The molecules below were run against B-Raf(V599E) kinase (Homo sapiens, UniProt P15056, V600E) (assay: B-Raf(V599E) kinase assay B1 (construct 1, MEK1 substrate, coupled spectrophotometric)).
Type: biochemical
Protocol: The test compounds were incubated with the reaction mixtureat 30° C. for 2 h. […] The reaction rate was calculated using the […] time frame. […] IC50 values were calculated from a series of percent inhibition values determined at a range of inhibitor concentrations using software routines as implemented in the GraphPad Prism software package.

B-Raf(V599E) kinase, sequence (P15056 with tags, fused parts or gaps V600E): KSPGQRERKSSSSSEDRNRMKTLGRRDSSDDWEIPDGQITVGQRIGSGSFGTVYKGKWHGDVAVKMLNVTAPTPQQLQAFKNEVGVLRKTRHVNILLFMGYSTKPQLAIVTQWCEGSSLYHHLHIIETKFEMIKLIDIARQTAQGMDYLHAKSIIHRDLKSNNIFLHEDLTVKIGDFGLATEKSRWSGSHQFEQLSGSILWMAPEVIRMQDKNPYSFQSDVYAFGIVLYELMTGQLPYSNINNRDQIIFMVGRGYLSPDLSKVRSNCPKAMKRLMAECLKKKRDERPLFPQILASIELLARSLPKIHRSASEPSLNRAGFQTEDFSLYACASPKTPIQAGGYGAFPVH

Structure (SMILES)	IC50
CCOC(=O)c1ccc(-n2nc(C(C)(C)C)cc2NC(=O)Nc2cccc(Cl)c2Cl)cc1 [Example 243, ethyl 4-{3-t-butyl-5-[3-(2,3-dichlorophenyl)ureido]-1H-pyrazol-1-yl}benzoate]	41 nM
CC(C)(C)c1cc(NC(=O)Nc2cccc(Cl)c2Cl)n(-c2ccc(C(=O)O)cc2)n1 [Example 244, 4-{3-t-butyl-5-[3-(2,3-dichlorophenyl)ureido]-1H-pyrazol-1-yl}benzoic acid]	38 nM
CC(=O)OCc1cccc(-n2nc(C(C)(C)C)cc2NC(=O)Nc2cccc(Cl)c2Cl)c1 [Example 245, 3-(3-t-butyl-5-(3-(2,3-dichlorophenyl)ureido)-1H-pyrazol-1-yl)benzyl acetate]	5.3 nM
CC(C)(C)c1cc(NC(=O)Nc2cccc(F)c2F)n(-c2ccc(CO)cc2)n1 [Example 246, 1-{3-t-butyl-1-[4-(hydroxymethyl)phenyl]-1H-pyrazol-5-yl}-3-(2,3-difluoro-phenyl)urea]	39 nM
CCOC(=O)Cc1cccc(-n2nc(C(C)(C)C)cc2NC(=O)Nc2ccc3c(c2)OCO3)c1 [Example 247, ethyl 2-(3-{5-[3-(benzo[d][1,3]dioxol-5-yl)ureido]-3-t-butyl-1H-pyrazol-1-yl}phenyl)-acetate]	70 nM
CC(C(=O)O)c1cccc(-n2nc(C(C)(C)C)cc2NC(=O)Nc2cccc(Cl)c2Cl)c1 (stereo not drawn) [Example 248, 2-(3-(3-t-butyl-5-(3-(2,3-dichlorophenyl)ureido)-1H-pyrazol-1-yl)phenyl)propanoic acid]	8.1 nM
CC(C)(C)c1cc(NC(=O)Nc2ccc3c(c2)OCO3)n(-c2cccc(CCN)c2)n1 [Example 253, 1-{1-[3-(2-aminoethyl)phenyl]-3-t-butyl-1 H-pyrazol-5-yl}-3-(benzo[d][1,3]dioxol-5-yl)urea]	75 nM
CC(C)(C)c1cc(NC(=O)Nc2ccc(Cl)cc2)n(-c2cccc(CCN)c2)n1 [Example 255, 1-{1-[3-(2-aminoethyl)phenyl]-3-t-butyl-1H-pyrazol-5-yl}-3-(4-chlorophenyl)urea]	86 nM
CNCCc1cccc(-n2nc(C(C)(C)C)cc2NC(=O)Nc2cccc(Cl)c2Cl)c1 [Example 258, 1-(3-t-butyl-1-(3-(2-(methylamino)ethyl)phenyl)-1H-pyrazol-5-yl)-3-(2,3-dichlorophenyl)urea]	3.4 nM
CC(C)NCCc1cccc(-n2nc(C(C)(C)C)cc2NC(=O)Nc2cccc(Cl)c2Cl)c1 [Example 259, 1-(3-t-butyl-1-(3-(2-(isopropylamino)ethyl)phenyl)-1H-pyrazol-5-yl)-3-(2,3-dichlorophenyl)urea]	8.3 nM
CC(C)(C)c1cc(NC(=O)Nc2cccc(Cl)c2Cl)n(-c2ccc(C(=N)NO)cc2)n1 [Example 260, 4-{3-t-butyl-5-[3-(2,3-dichlorophenyl)ureido]pyrazol-1-yl}-N-hydroxybenzamidine]	4 nM
CC(C)(C)c1cc(NC(=O)Nc2ccc(Cl)cc2)n(-c2cccc(CN3C(=O)C(=O)N(c4ccccc4)C3=O)c2)n1 [Example 269, 1-(3-t-butyl-1-(3-[(2,4,5-trioxo-3-phenylimidazolidin-1-yl)methyl]phenyl}-1H-pyrazol-5-yl)-3-(4-chlorophenyl)urea]	279 nM
CC(C)(C)c1cc(NC(=O)Nc2ccc(F)cc2)n(-c2cccc(Cn3c(=O)[nH]n(-c4ccccc4)c3=O)c2)n1 [Example 272, 1-(3-t-butyl-1-{3-[(3,5-dioxo-1-phenyl-1,2,4-triazolidin-4-yl)methyl]phenyl}-1H-pyrazol-5-yl)-3-(4-fluorophenyl)urea]	61 nM
CC(C)(C)c1cc(NC(=O)NC2CCCCC2)n(-c2cccc(-c3cccnc3)c2)n1 [Example 274, 1-[5-t-butyl-2-(3-pyridin-3-yl-phenyl)-2H-pyrazol-3-yl]-3-cyclohexyl-urea]	134 nM
CC(C)(C)c1ncc(NC(=O)Nc2cccc(Oc3ccccc3)c2)c(-c2ccccc2)n1 [Example 280, 1-(2-t-butyl-4-phenylpyrimidin-5-yl)-3-(3-phenoxyphenyl)urea]	275 nM
CC(C)(C)c1cc(NC(=O)Nc2ccc(F)cc2F)n(-c2ccc3ncccc3c2)n1 [Example 284, 1-(3-t-butyl-1-(quinolin-6-yl)-1H-pyrazol-5-yl)-3-(2,4-difluorophenyl)urea]	8.5 nM
CC(C)(C)c1cc(NC(=O)Nc2cccc(Cl)c2Cl)n(-c2cc(C(=O)O)c3ccccc3c2)n1 [Example 287, 3-{3-t-butyl-5-(3-(2,3-dichlorophenyl)ureido]-1H-pyrazol-1-yl}-1-naphthoic acid]	41 nM
CCOC(=O)c1cc(-n2nc(C(C)(C)C)cc2NC(=O)NC2CCCCC2)cc2ccccc12 [Example 288, ethyl 3-(3-t-butyl-5-(3-cyclohexylureido)-1H-pyrazol-1-yl)-1-naphthoate]	56 nM
CCOC(=O)c1cc(-n2nc(C(C)(C)C)cc2NC(=O)Nc2ccc(F)cc2F)cc2ccccc12 [Example 289, ethyl 3-(3-t-butyl-5-(3-(2,4-difluorophenyl)ureido)-1H-pyrazol-1-yl)-1-naphthoate]	28 nM
CC(C)(C)c1cc(NC(=O)Nc2ccccc2)n(-c2cc(CO)c3ccccc3c2)n1 [Example 290, 1-[3-t-butyl-1-(4-(hydroxymethyl)naphthalen-2-yl)-1H-pyrazol-5-yl]-3-phenylurea]	12 nM

Structure (SMILES)	IC50
CC(C)(C)c1cc(NC(=O)Nc2ccccc2F)n(-c2cc(CO)c3ccccc3c2)n1 [Example 291, 1-(3-t-butyl-1-(4-(hydroxymethyl)naphthalen-2-yl)-1H-pyrazol-5-yl)-3-(2-fluorophenyl)urea]	5.3 nM
CC(C)(C)c1cc(NC(=O)NC2CCCCC2)n(-c2cc(CO)c3ccccc3c2)n1 [Example 292, 1-(3-t-butyl-1-(4-(hydroxymethyl)naphthalen-2-yl)-1H-pyrazol-5-yl)-3-cyclohexylurea]	22 nM
CC(C)(C)c1cc(NC(=O)Nc2ccc(F)cc2)n(-c2cc(CO)c3ccccc3c2)n1 [Example 293]	7 nM
CC(C)(C)c1cc(NC(=O)Nc2cccc(F)c2F)n(-c2cc(CO)c3ccccc3c2)n1 [Example 294]	3.3 nM
CC(C)(C)c1cc(NC(=O)Nc2ccccc2)n(-c2cc(CN)c3ccccc3c2)n1 [Example 295, 1-[1-(4-(aminomethyl)naphthalen-2-yl)-3-t-butyl-1H-pyrazol-5-yl]-3-phenylurea]	52 nM
CCOC(=O)Cc1cc(-n2nc(C(C)(C)C)cc2NC(=O)Nc2ccc(Cl)cc2)cc2ccccc12 [Example 298, (3-{3-t-butyl-5-[3-(4-chlorophenyl)ureido]pyrazol-1-yl}naphthalen-1-yl)acetic acid ethyl ester]	83 nM
COC(=O)Cc1cc(-n2nc(C(C)(C)C)cc2NC(=O)Nc2ccccc2)cc2ccccc12 [Example 299, {3-[3-t-butyl-5-(3-phenylureido)pyrazol-1-yl]naphthalen-1-yl}acetic acid methyl ester]	20 nM
CC(C)(C)c1cc(NC(=O)Nc2ccc(Cl)cc2)n(-c2cc(CC(=O)O)c3ccccc3c2)n1 [Example 300, (3-{3-t-butyl-5-[3-(4-chlorophenyl)ureido]pyrazol-1-yl}naphthalen-1-yl)acetic acid]	9.2 nM
CC(C)(C)c1cc(NC(=O)Nc2ccc(Cl)cc2)n(-c2cc(CCO)c3ccccc3c2)n1 [Example 302, 1-{5-t-butyl-2-[4-(2-hydroxyethyl)naphthalen-2-yl]-2H-pyrazol-3-yl}-3-(4-chlorophenyl)urea]	13 nM
CC(C)(C)c1cc(NC(=O)Nc2cccc(Cl)c2Cl)n(-c2cc(CCO)c3ccccc3c2)n1 [Example 303, 1-{5-t-butyl-2-[4-(2-hydroxyethyl)naphthalen-2-yl]-2H-pyrazol-3-yl}-3-(2,3-dichlorophenyl)urea]	4.3 nM
CC(C)(C)c1cc(NC(=O)Nc2cccc(F)c2)n(-c2ccc3c(c2)CCN3)n1 [Example 306, 1-(3-t-butyl-1-(indolin-5-yl)-1H-pyrazol-5-yl)-3-(3-fluorophenyl)urea]	36 nM
CC(C)(C)c1cc(NC(=O)Nc2ccc(Cl)cc2)n(-c2ccc3c(c2)C(=O)NCC3)n1 [Example 309, 1-[3-t-butyl-1-(1-oxo-1,2,3,4-tetrahydroiso-quinolin-7-yl)-1H-pyrazol-5-yl]-3-(4-chlorophenyl)urea]	249 nM
CC(C)(C)c1cc(NC(=O)NC2CCCCC2)n(-c2ccc3c(c2)C(=O)NCC3)n1 [Example 310, 1-(3-t-butyl-1-(1-oxo-1,2,3,4-tetrahydroiso-quinolin-7-yl)-1H-pyrazol-5-yl)-3-cyclohexylurea]	98 nM
CC(C)(C)c1cc(NC(=O)Nc2ccc(F)cc2F)n(-c2ccc3c(c2)C(=O)NCC3)n1 [Example 311, 1-(3-t-butyl-1-(1-oxo-1,2,3,4-tetrahydroiso-quinolin-7-yl)-1H-pyrazol-5-yl)-3-(2,4-difluorophenyl)urea]	32 nM
CC(C)(C)c1cc(NC(=O)Nc2ccccc2F)n(-c2ccc3c(c2)C(=O)NCC3)n1 [Example 312, 1-(3-t-butyl-1-(1-oxo-1,2,3,4-tetrahydroiso-quinolin-7-yl)-1H-pyrazol-5-yl)-3-(2-fluorophenyl)urea]	35 nM
CC(C)(C)c1cc(NC(=O)Nc2ccccc2Cl)n(-c2ccc3c(c2)C(=O)NCC3)n1 [Example 313, 1-(3-t-butyl-1-(1-oxo-1,2,3,4-tetrahydroiso-quinolin-7-yl)-1H-pyrazol-5-yl)-3-(2-chlorophenyl)urea]	46 nM
Cc1cc(NC(=O)Nc2cc(C(C)(C)C)nn2-c2ccc3c(c2)C(=O)NCC3)no1 [Example 314, 1-(3-t-butyl-1-(1-oxo-1,2,3,4-tetrahydroiso-quinolin-7-yl)-1H-pyrazol-5-yl)-3-(5-methylisoxazol-3-yl)urea]	266 nM
CC(C)(C)c1cc(NC(=O)Nc2ccc(Cl)cc2)n(-c2ccc3c(c2)CCC(=O)N3)n1 [Example 315, 1-(3-t-butyl-1-(2-oxo-1,2,3,4-tetrahydro-quinolin-6-yl)-1H-pyrazol-5-yl)-3-(4-chlorophenyl)urea]	186 nM
CC(C)(C)c1cc(NC(=O)Nc2ccc(F)cc2)n(-c2ccc3c(c2)CCC(=O)N3)n1 [Example 317]	36 nM
